Results as given in article PMC11668715 (AMB Express, 2024).
Each block holds one compound with its values, some of them ahead of it.

How the values were obtained:
MRSA ATCC 43,300 [1] = assay: Checkerboard dilution assay; type: cell-based, S. aureus; set-up: MICalone / MICcombined: unit not given beside the values; settings: for MICalone: drug alone, checkerboard; for MICalone / MICcombined: MRSA ATCC 43,300; for Fold change: MIC combined vs alone
MRSA ATCC 43,300 [2] = assay: Time-killing assay of the synergistical combinations; type: cell-based, S. aureus; settings: 1/4×MIC of PVB and 1/4×MIC of the antibiotic
[3] = test system: MRSA and S. epidermidis persister cells; assay: Persister cells killing assay; type: cell-based, S. aureus and S. epidermidis; settings: 64 µg/mL
[4] = group 11: PVB combined with CAZ
[5] = group 20: PVB combined with TOB
[6] = group 13: PVB combined with CEZ
[7] = group 15: PVB combined with OXA
[8] = group 17: PVB combined with AMK
[9] = group 16: PVB combined with CRO
[10] = group 18: PVB combined with GEN
[11] = group 21: PVB combined with SPC
[12] = group 12: PVB combined with AMP
[13] = group 14: PVB combined with CEF
[14] = group 19: PVB combined with KANA

MICalone (MRSA ATCC 43,300 [1]): 64
MICcombined (MRSA ATCC 43,300 [1]; [5]): 256
Compound: NC[C@H]1O[C@H](O[C@H]2[C@H](O)[C@@H](O[C@H]3O[C@H](CO)[C@@H](O)[C@H](N)[C@H]3O)[C@H](N)C[C@@H]2N)[C@H](N)C[C@@H]1O [TOB, tobramycin]
FICI (MRSA ATCC 43,300 [1]; group 20: PVB + TOB): 5
Fold change (MRSA ATCC 43,300 [1]; [5]): 4

MICalone (MRSA ATCC 43,300 [1]): 16
MICcombined (MRSA ATCC 43,300 [1]; [7]): 2
Compound: Cc1onc(-c2ccccc2)c1C(=O)N[C@@H]1C(=O)N2[C@@H]1SC(C)(C)[C@@H]2C(=O)O [OXA, oxacillin]
FICI (MRSA ATCC 43,300 [1]; group 15: PVB + OXA): 0.25
Fold change (MRSA ATCC 43,300 [1]; [7]): 0.125
bactericidal activity of combination with PVB (time-killing) (MRSA ATCC 43,300 [2]): synergistical bactericidal activity

MICalone (MRSA ATCC 43,300 [1]): 1
MICcombined (MRSA ATCC 43,300 [1]; group 9: PVB combined with VAN): 1
Compound: CN[C@H](CC(C)C)C(=O)N[C@H]1C(=O)N[C@@H](CC(N)=O)C(=O)N[C@H]2C(=O)N[C@H]3C(=O)N[C@H](C(=O)N[C@H](C(=O)O)c4cc(O)cc(O)c4-c4cc3ccc4O)[C@H](O)c3ccc(c(Cl)c3)Oc3cc2cc(c3O[C@@H]2O[C@H](CO)[C@@H](O)[C@H](O)[C@H]2O[C@H]2C[C@](C)(N)[C@H](O)[C@H](C)O2)Oc2ccc(cc2Cl)[C@H]1O [VAN, vancomycin]
FICI (MRSA ATCC 43,300 [1]; group 9: PVB + VAN): 2
Fold change (MRSA ATCC 43,300 [1]; group 9: PVB combined with VAN): 1
persister cells killing [3]: resistant

MICalone (MRSA ATCC 43,300 [1]): 16
MICcombined (MRSA ATCC 43,300 [1]; [10]): 16
Compound: gentamycin
FICI (MRSA ATCC 43,300 [1]; group 18: PVB + GEN): 2
Outcome (MRSA ATCC 43,300 [1]; group 18: PVB + GEN): indifference (an indifference effect was defined as 1 < FICI ≤ 4)
Fold change (MRSA ATCC 43,300 [1]; [10]): 1

MICalone (MRSA ATCC 43,300 [1]): 128
MICcombined (MRSA ATCC 43,300 [1]; [11]): 128
Compound: CN[C@@H]1[C@H](O)[C@H](NC)[C@H]2O[C@@]3(O)C(=O)C[C@@H](C)O[C@H]3O[C@@H]2[C@H]1O [SPC, spectinomycin]
FICI (MRSA ATCC 43,300 [1]; group 21: PVB + SPC): 2
Fold change (MRSA ATCC 43,300 [1]; [11]): 1

MICalone (MRSA ATCC 43,300 [1]): 2
MICcombined (MRSA ATCC 43,300 [1]; group 1: PVB combined with TET): 2
Compound: CN(C)[C@@H]1C(O)=C(C(N)=O)C(=O)[C@@]2(O)C(O)=C3C(=O)c4c(O)cccc4[C@@](C)(O)[C@H]3C[C@@H]12 [TET, tetracycline]
FICI (MRSA ATCC 43,300 [1]; group 1: PVB + TET): 3
Fold change (MRSA ATCC 43,300 [1]; group 1: PVB combined with TET): 1

MICalone (MRSA ATCC 43,300 [1]): 2
MICcombined (MRSA ATCC 43,300 [1]; group 8: PVB combined with LZD): 2
Compound: CC(=O)NC[C@H]1CN(c2ccc(N3CCOCC3)c(F)c2)C(=O)O1 [LZD, linezolid]
FICI (MRSA ATCC 43,300 [1]; group 8: PVB + LZD): 2
Fold change (MRSA ATCC 43,300 [1]; group 8: PVB combined with LZD): 1

The next lines start with the compound.

Compound: CC(C)(O/N=C(\C(=O)N[C@@H]1C(=O)N2C(C(=O)[O-])=C(C[n+]3ccccc3)CS[C@H]12)c1csc(N)n1)C(=O)O [CAZ, ceftazidime]
MICalone (MRSA ATCC 43,300 [1]): 32
FICI (MRSA ATCC 43,300 [1]; group 11: PVB + CAZ): 0.75
Fold change (MRSA ATCC 43,300 [1]; [4]): 0.25
MICcombined (MRSA ATCC 43,300 [1]; [4]): 8

Compound: Cc1nnc(SCC2=C(C(=O)O)N3C(=O)[C@@H](NC(=O)Cn4cnnn4)[C@H]3SC2)s1 [CEZ, cefazolin]
MICalone (MRSA ATCC 43,300 [1]): 16
FICI (MRSA ATCC 43,300 [1]; group 13: PVB + CEZ): 0.5625
Fold change (MRSA ATCC 43,300 [1]; [6]): 0.5
MICcombined (MRSA ATCC 43,300 [1]; [6]): 8

Compound: CC[C@H]1OC(=O)[C@H](C)[C@@H](O[C@H]2C[C@@](C)(OC)[C@@H](O)[C@H](C)O2)[C@H](C)[C@@H](O[C@@H]2O[C@H](C)C[C@H](N(C)C)[C@H]2O)[C@](C)(O)C[C@@H](C)CN(C)[C@H](C)[C@@H](O)[C@]1(C)O [AZI, azithromycin]
MICalone (MRSA ATCC 43,300 [1]): > 256
FICI (MRSA ATCC 43,300 [1]; group 4: PVB + AZI): 2
Fold change (MRSA ATCC 43,300 [1]; group 4: PVB combined with AZI): 1
MICcombined (MRSA ATCC 43,300 [1]; group 4: PVB combined with AZI): > 256

Compound: C[C@H]1c2cccc(O)c2C(=O)C2=C(O)[C@]3(O)C(=O)C(C(N)=O)=C(O)[C@@H](N(C)C)[C@@H]3[C@@H](O)[C@@H]21 [DOX, doxycycline]
MICalone (MRSA ATCC 43,300 [1]): 0.25
FICI (MRSA ATCC 43,300 [1]; group 2: PVB + DOX): 2
Fold change (MRSA ATCC 43,300 [1]; group 2: PVB combined with DOX): 1
MICcombined (MRSA ATCC 43,300 [1]; group 2: PVB combined with DOX): 0.25

Compound: NCC[C@H](O)C(=O)N[C@@H]1C[C@H](N)[C@@H](O[C@H]2O[C@H](CN)[C@@H](O)[C@H](O)[C@H]2O)[C@H](O)[C@H]1O[C@H]1O[C@H](CO)[C@@H](O)[C@H](N)[C@H]1O [AMK, amikacin]
MICalone (MRSA ATCC 43,300 [1]): 64
FICI (MRSA ATCC 43,300 [1]; group 17: PVB + AMK): > 2
Outcome (MRSA ATCC 43,300 [1]; group 17: PVB + AMK): indifference/antagonism
Fold change (MRSA ATCC 43,300 [1]; [8]): > 1
MICcombined (MRSA ATCC 43,300 [1]; [8]): > 64

Compound: CC[C@H]1OC(=O)[C@H](C)[C@@H](O[C@H]2C[C@@](C)(OC)[C@@H](O)[C@H](C)O2)[C@H](C)[C@@H](O[C@@H]2O[C@H](C)C[C@H](N(C)C)[C@H]2O)[C@](C)(O)C[C@@H](C)C(=O)[C@H](C)[C@@H](O)[C@]1(C)O [E, erythromycin]
FICI (MRSA ATCC 43,300 [1]; group 3: PVB + E): 2

Compound: CCCCCCCCCC(=O)N[C@@H](Cc1c[nH]c2ccccc12)C(=O)N[C@H](CC(N)=O)C(=O)N[C@@H](CC(=O)O)C(=O)N[C@@H]1C(=O)NCC(=O)N[C@@H](CCCN)C(=O)N[C@@H](CC(=O)O)C(=O)N[C@H](C)C(=O)N[C@@H](CC(=O)O)C(=O)NCC(=O)N[C@H](CO)C(=O)N[C@@H]([C@H](C)CC(=O)O)C(=O)N[C@@H](CC(=O)c2ccccc2N)C(=O)O[C@@H]1C [DAP, daptomycin]
MICalone (MRSA ATCC 43,300 [1]): 0.25
FICI (MRSA ATCC 43,300 [1]; group 6: PVB + DAP): 1
Fold change (MRSA ATCC 43,300 [1]; group 6: PVB combined with DAP): 0.5
MICcombined (MRSA ATCC 43,300 [1]; group 6: PVB combined with DAP): 0.125

Compound: penicillin
FICI (MRSA ATCC 43,300 [1]; group 10: PVB + P): 1.5
Outcome (MRSA ATCC 43,300 [1]; group 10: PVB + P): indifference (an indifference effect was defined as 1 < FICI ≤ 4)

Compound: CO/N=C(\C(=O)N[C@@H]1C(=O)N2C(C(=O)O)=C(CSc3nc(=O)c(=O)[nH]n3C)CS[C@H]12)c1csc(N)n1 [CRO, ceftriaxone]
MICalone (MRSA ATCC 43,300 [1]): 32
FICI (MRSA ATCC 43,300 [1]; group 16: PVB + CRO): 0.5625
Fold change (MRSA ATCC 43,300 [1]; [9]): 0.0625
MICcombined (MRSA ATCC 43,300 [1]; [9]): 2

Compound: C[C@H]1COc2c(N3CCN(C)CC3)c(F)cc3c(=O)c(C(=O)O)cn1c23 [LEV, levofloxacin]
MICalone (MRSA ATCC 43,300 [1]): 0.125
FICI (MRSA ATCC 43,300 [1]; group 5: PVB + LEV): 2
Fold change (MRSA ATCC 43,300 [1]; group 5: PVB combined with LEV): 1
MICcombined (MRSA ATCC 43,300 [1]; group 5: PVB combined with LEV): 0.125

Compound: CC1(C)S[C@@H]2[C@H](NC(=O)[C@H](N)c3ccccc3)C(=O)N2[C@H]1C(=O)O [AMP, ampicillin]
MICalone (MRSA ATCC 43,300 [1]): 16
FICI (MRSA ATCC 43,300 [1]; group 12: PVB + AMP): 0.5
Fold change (MRSA ATCC 43,300 [1]; [12]): 0.25
MICcombined (MRSA ATCC 43,300 [1]; [12]): 4
bactericidal activity of combination with PVB (time-killing) (MRSA ATCC 43,300 [2]): synergistical bactericidal activity

Compound: CO/N=C(\C(=O)N[C@@H]1C(=O)N2C(C(=O)O)=C(COC(C)=O)CS[C@H]12)c1csc(N)n1 [CEF, cefotaxime]
MICalone (MRSA ATCC 43,300 [1]): 2
Fold change (MRSA ATCC 43,300 [1]; [13]): 0.25
MICcombined (MRSA ATCC 43,300 [1]; [13]): 0.5
bactericidal activity of combination with PVB (time-killing) (MRSA ATCC 43,300 [2]): synergistical bactericidal activity

Compound: C[C@@H]1O[C@@H]1P(=O)(O)O [FOS, fosfomycin]
MICalone (MRSA ATCC 43,300 [1]): 32
FICI (MRSA ATCC 43,300 [1]; group 7: PVB + FOS): 2
Fold change (MRSA ATCC 43,300 [1]; group 7: PVB combined with FOS): 1
MICcombined (MRSA ATCC 43,300 [1]; group 7: PVB combined with FOS): 32

Compound: NC[C@H]1O[C@H](O[C@H]2[C@H](O)[C@@H](O[C@H]3O[C@H](CO)[C@@H](O)[C@H](N)[C@H]3O)[C@H](N)C[C@@H]2N)[C@H](O)[C@@H](O)[C@@H]1O [KANA, kanamycin]
MICalone (MRSA ATCC 43,300 [1]): 256
FICI (MRSA ATCC 43,300 [1]; group 19: PVB + KANA): 4.5
Outcome (MRSA ATCC 43,300 [1]; group 19: PVB + KANA): antagonism (an antagonism effect was defined as FICI > 4)
Fold change (MRSA ATCC 43,300 [1]; [14]): 4
MICcombined (MRSA ATCC 43,300 [1]; [14]): 1024
